Experimental findings from US11655247B2, “Nanoluc suicide substrates” (PROMEGA CORPORATION, priority 2018, dated 2023) are described below.

Experiment [1] deals with T1, NanoLuc (Oplophorus gracilirostris, UniProt Q9GV45, A31E/A60N/A81I/F95D/I117V/K70R/L54V/L99Q/M102K/N193R/P142E/Q151K/Q38R/Q45L/V71I/Y165I). The format is biochemical. To be noted: for RLU (at 100 μM): relative value, Furimazine set to 1, NanoLuc, read three minutes after substrate addition. As to the method: Luminescence Assay Procedure:
Each compound to be screened was dissolved in DMSO (5 mM) and then further diluted to 100 μM in NANO-GLO® Luciferase Assay Buffer. Km values were determined by first serially diluting substrates two-fold into NANO-GLO® Luciferase Assay Buffer. Substrate dilutions were then combined with an equal volume of NanoLuc diluted to 4 ng/ml in TBS+0.01% BSA. Autoluminescence was measured by combining the 100 uM dilution of substrate with TBS+0.01% BSA. Luminescence and autoluminescence values were measured in a GloMax®-Multi+ luminometer three minutes after substrate addition. Signal decay was measured by combining equal volumes of 100 uM of substrate with 4 ng/ml NanoLuc in TBS+0.01% BSA and then samples were read in five minute intervals for two hours using a GloMax®-Multi+. Km was calculated using GraphPad Prism using nonlinear Michaelis-Menten regression. Signal half-life values were calculated using GraphPad Prism Non-linear decay, plateau set to zero.

In experiment [2] the target is T1, NanoLuc. The experiment can be described thus: Inhibition of NanoLuc luciferase: blocking of furimazine luminescence after pre-incubation. It is filed as biochemical. To be noted: for Inhibition of NanoLuc (bioluminescence upon later furimazine addition): compound incubated with NanoLuc first, then furimazine (10 μM) added; for Initial luminescent signal compared with furimazine: incubated with NanoLuc in DMEM for 12 minutes. As to the method:
Compounds were also tested for their ability to block furimazine luminescence with NanoLuc. Typically, NanoLuc (0.4 μg/mL) in DMEM was incubated with either furimazine or test compound (50 μM) while monitoring RLU's with a GloMax® luminometer for 10-60 minutes. After the set time, the plate was removed from the instrument, and a dose of furimazine (10 μM) was added to the well containing the test compound and monitored for 10-60 minutes.
FIGS. 3A-B depicts inhibition of Nluc luciferase by furimazine-h. Furimazine-h (10 μM) was incubated with NanoLuc in NanoGlo or DMEM for 15 or 10 minutes, respectively. This bright signal rapidly degrades to a fraction of the signal observed in the furimazine positive control wells.
FIG. 9 depicts inhibition of Nluc luciferase by furimazine-h. This is a reverse addition experiment as compared to FIG. 3. Furimazine (10 μM) was incubated with NanoLuc in NanoGlo® buffer for 15 minutes.
JRW-0855 and JRW-1088 were incubated with NanoLuc in DMEM for 12 minutes. […] After the incubation period, 10 μM furimazine was added to the well.

Molecules are shown by their SMILES.

T1 sequence (Q9GV45 28-196 with tags or gaps with the stated changes limits assumed): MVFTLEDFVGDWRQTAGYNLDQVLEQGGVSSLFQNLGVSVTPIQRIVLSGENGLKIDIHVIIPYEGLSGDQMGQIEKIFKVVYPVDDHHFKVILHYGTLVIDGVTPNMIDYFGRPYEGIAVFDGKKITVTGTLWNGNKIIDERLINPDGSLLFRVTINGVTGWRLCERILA

`O=c1c(Cc2ccco2)nc2c(Cc3ccccc3)[nH]c(-c3ccccc3)cn1-2` [Furimazine, 8-benzyl-2-(furan-2-ylmethyl)-6-phenylimidazo[1,2-a]pyrazin-3(7H)-one, reference compound]: the “Light output (value set to 1)” value in experiment [1] (at 2 ng/mL NanoLuc) is on record as ~2.0×10^7 RLU. Further, the “RLU (at 100 μM)” value in experiment [1] is given as 1.
Consider `NCCCCCCOc1ccc(Cc2nc3c(Cc4ccccc4)[nH]c(-c4ccc(O)cc4)cn-3c2=O)cc1F` [JRW-0855, 2-(4-((6-aminohexyl)oxy)-3-fluorobenzyl)-8-benzyl-6-(4-hydroxyphenyl)imidazo[1,2-a]pyrazin-3(7H)-one], for which, in experiment [2], the “Inhibition of NanoLuc (bioluminescence upon later furimazine addition)” value (“Inhibition of NanoLuc” for short) was “only partially inhibited” and the “Initial luminescent signal compared with furimazine” value is listed as “significantly lower”. Moreover, the “RLU (at 100 μM)” value in experiment [1] was 0.004.
In the case of `O=c1c(Cc2ccc(OCCCCCCS(=O)(=O)[O-])c(F)c2)nc2c(Cc3ccccc3)[nH]c(-c3ccc(O)cc3)cn1-2.[Na+]` [JRW-0892-2, Sodium 6-(4-((8-benzyl-6-(4-hydroxyphenyl)-3-oxo-3,7-dihydroimidazo[1,2-a]pyrazin-2-yl)methyl)-2-fluorophenoxy)hexane-1-sulfonate], in experiment [2], the “Inhibition of NanoLuc” value is on record as “exemplary suicide substrates of NanoLuc”. The “RLU (at 100 μM)” value in experiment [1] is 0.04.
The corresponding values for `O=C(NCCCCCCOc1ccc(Cc2nc3c(Cc4ccccc4)[nH]c(-c4ccc(O)cc4)cn-3c2=O)cc1F)c1ccc(C(=O)[O-])c(-c2c3ccc(O)cc3[o+]c3cc(O)ccc23)c1` [JRW-0893, 4-((6-(4-((8-benzyl-6-(4-hydroxyphenyl)-3-oxo-3,7-dihydroimidazo[1,2-a]pyrazin-2-yl)methyl)-2-fluorophenoxy)hexyl)carbamoyl)-2-(3,6-dihydroxyxanthylium-9-yl)benzoate] are “exemplary suicide substrates of NanoLuc” and 0.05.
Take `O=C(CCc1ccc2n1[B-](F)(F)[N+]1=C(c3ccc[nH]3)C=CC1=C2)NCCCCCCOc1ccc(Cc2nc3c(Cc4ccccc4)[nH]c(-c4ccc(O)cc4)cn-3c2=O)cc1F` [JRW-0900, N-(6-(4-((8-benzyl-6-(4-hydroxyphenyl)-3-oxo-3,7-dihydroimidazo[1,2-a]pyrazin-2-yl)methyl)-2-fluorophenoxy)hexyl)-3-(5,5-difluoro-7-(1H-pyrrol-2-yl)-5H-5l4,6l4-dipyrrolo[1,2-c:2′,1′-f][1,3,2]diazaborinin-3-yl)propanamide]: in experiment [2], the “Inhibition of NanoLuc” value is listed as “did not inhibit NanoLuc”. Besides, in experiment [1], the “RLU (at 100 μM)” value came to 0.00094.
With `NCCCCCCCCOc1ccc(Cc2nc3c(Cc4ccccc4)[nH]c(-c4ccc(O)cc4)cn-3c2=O)cc1F` [JRW-0904, 2-(4-((8-aminooctyl)oxy)-3-fluorobenzyl)-8-benzyl-6-(4-hydroxyphenyl)imidazo[1,2-a]pyrazin-3(7H)-one], the “Inhibition of NanoLuc” value in experiment [2] is listed as “partial Nluc inhibitors”.
With `NCCOCCOCCC(=O)NCCCCCCCCOc1ccc(Cc2cc3c(Cc4ccccc4)[nH]c(-c4ccc(O)cc4)cn-3c2=O)cc1F` [JRW-0925, 3-(2-(2-aminoethoxy)ethoxy)-N-(8-(4-((1-benzyl-3-(4-hydroxyphenyl)-6-oxo-2,6-dihydropyrrolo[1,2-a]pyrazin-7-yl)methyl)-2-fluorophenoxy)octyl)propanamide], the “Inhibition of NanoLuc” value in experiment [2] is listed as “partial Nluc inhibitors”. Besides, the “RLU (at 100 μM)” value in experiment [1] is 0.02.
The corresponding values for `O=C(CCOCCOCCNC(=O)c1ccc(C(=O)[O-])c(-c2c3ccc(O)cc3[o+]c3cc(O)ccc23)c1)NCCCCCCCCOc1ccc(Cc2cc3c(Cc4ccccc4)[nH]c(-c4ccc(O)cc4)cn-3c2=O)cc1F` [JRW-0926, 4-((2-(2-(3-((8-(4-((1-benzyl-3-(4-hydroxyphenyl)-6-oxo-2,6-dihydropyrrolo[1,2-a]pyrazin-7-yl)methyl)-2-fluorophenoxy)octyl)amino)-3-oxopropoxy)ethoxy)ethyl)carbamoyl)-2-(3,6-dihydroxyxanthylium-9-yl)benzoate] are “exemplary suicide substrates of NanoLuc” and 0.04.
The corresponding values for `[N-]=[N+]=NCCCCCCOc1ccc(Cc2nc3c(Cc4ccccc4)[nH]c(-c4ccc(O)cc4)cn-3c2=O)cc1F` [JRW-0975, 2-(4-((6-azidohexyl)oxy)-3-fluorobenzyl)-8-benzyl-6-(4-hydroxyphenyl)imidazo[1,2-a]pyrazin-3(7H)-one] are “exemplary suicide substrates of NanoLuc” and 0.005.
With `O=C(NCCCCCCCCOc1ccc(Cc2nc3c(Cc4ccccc4)[nH]c(-c4ccc(O)cc4)cn-3c2=O)cc1F)c1cc2ccc(O)cc2oc1=O` [JRW-1018, N-(8-(4-((8-benzyl-6-(4-hydroxyphenyl)-3-oxo-3,7-dihydroimidazo[1,2-a]pyrazin-2-yl)methyl)-2-fluorophenoxy)octyl)-7-hydroxy-2-oxo-2H-chromene-3-carboxamide], the “Inhibition of NanoLuc” value in experiment [2] is “partial Nluc inhibitors”.
The same measure, in the same setting: next, `O=C(NCCCCCCCCOc1ccc(Cc2nc3c(Cc4ccccc4)[nH]c(-c4ccc(O)cc4)cn-3c2=O)cc1F)c1cc2cc3c4c(c2oc1=O)CCCN4CCC3` [JRW-1023, N-(8-(4-((8-benzyl-6-(4-hydroxyphenyl)-3-oxo-3,7-dihydroimidazo[1,2-a]pyrazin-2-yl)methyl)-2-fluorophenoxy)octyl)-11-oxo-2,3,6,7-tetrahydro-1H,5H,11H-pyrano[2,3-f]pyrido[3,2,1-ij]quinoline-10-carboxamide]: “did not inhibit NanoLuc”.
Same read-out and setting: next, `O=C(NCCCCCCCCOc1ccc(Cc2nc3c(Cc4ccccc4)[nH]c(-c4ccc(O)cc4)cn-3c2=O)cc1F)c1ccc(-c2c3cc(F)c(O)cc3[o+]c3cc(O)c(F)cc23)c(C(=O)[O-])c1` [JRW-1058, 5-((8-(4-((8-benzyl-6-(4-hydroxyphenyl)-3-oxo-3,7-dihydroimidazo[1,2-a]pyrazin-2-yl)methyl)-2-fluorophenoxy)octyl)carbamoyl)-2-(2,7-difluoro-3,6-dihydroxyxanthylium-9-yl)benzoate]: “exemplary suicide substrates of NanoLuc”; `O=C(NCCCCCCCCOc1ccc(Cc2nc3c(Cc4ccccc4)[nH]c(-c4ccc(O)cc4)cn-3c2=O)cc1F)c1ccc(-c2c3ccc4cc(O)ccc4c3[o+]c3c2ccc2cc(O)ccc23)c(C(=O)[O-])c1` [JRW-1059, 5-((8-(4-((8-benzyl-6-(4-hydroxyphenyl)-3-oxo-3,7-dihydroimidazo[1,2-a]pyrazin-2-yl)methyl)-2-fluorophenoxy)octyl)carbamoyl)-2-(3,11-dihydroxydibenzo[c,h]xanthen-14-ium-7-yl)benzoate]: “NanoLuc is not inhibited”.
With `Cc1cc(C)n2c1C(CCNC(=O)CCC(=O)NCCCCCCCCOc1ccc(Cc3nc4c(Cc5ccccc5)[nH]c(-c5ccc(O)cc5)cn-4c3=O)cc1F)=C1C=CC=[N+]1[B-]2(F)F` [JRW-1088, N1-(8-(4-((8-benzyl-6-(4-hydroxyphenyl)-3-oxo-3,7-dihydroimidazo[1,2-a]pyrazin-2-yl)methyl)-2-fluorophenoxy)octyl)-N4-(2-(5,5-difluoro-1,3-dimethyl-5H-5λ^4,6λ^4-dipyrrolo[1,2-c:2′,1′-f][1,3,2]diazaborinin-10-yl)ethyl)succinamide], in experiment [2], the “Inhibition of NanoLuc” value is recorded as “only partially inhibited” and the “Initial luminescent signal compared with furimazine” value is “significantly lower”.
